Data as given in paper PMC8459327, “Identification of molecular glues of the SLP76/14-3-3 protein–protein interaction” (RSC Medicinal Chemistry, 2021).
Where “and” joins values, the source holds several entries; their conditions need not be identical. Identical values can stand only once. Entries after “also recorded” stand apart in the source; their conditions may differ. Like-named read-outs stand apart in the source and are kept apart here.

Legend:
Format in all cases: binding
[1] = target: T1, 14-3-3γ/SLP76 (Homo sapiens, UniProt P61981+Q13094); assay: Orthogonal SPR assay, compound flowed with SLP76 over immobilised 14-3-3γ; set-up: key to SPR RU (%) mass increase 14-3-3γ/SLP76: Ns: no stabilisation observed in SPR; details: for Stabilisation in SPR (in words): off-rate / mass on chip versus runs without compound; for SPR RU (%) mass increase 14-3-3γ/SLP76: percentage of SLP76 remained on the chip after the dissociation phase (+240 s)
T1 sequence (Q13094 356-533): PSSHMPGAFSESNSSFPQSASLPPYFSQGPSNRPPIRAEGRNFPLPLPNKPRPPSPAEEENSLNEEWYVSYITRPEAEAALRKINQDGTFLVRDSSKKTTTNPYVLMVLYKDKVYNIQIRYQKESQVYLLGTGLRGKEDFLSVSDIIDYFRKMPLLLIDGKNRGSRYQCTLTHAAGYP
T1 sequence (P61981 whole entry): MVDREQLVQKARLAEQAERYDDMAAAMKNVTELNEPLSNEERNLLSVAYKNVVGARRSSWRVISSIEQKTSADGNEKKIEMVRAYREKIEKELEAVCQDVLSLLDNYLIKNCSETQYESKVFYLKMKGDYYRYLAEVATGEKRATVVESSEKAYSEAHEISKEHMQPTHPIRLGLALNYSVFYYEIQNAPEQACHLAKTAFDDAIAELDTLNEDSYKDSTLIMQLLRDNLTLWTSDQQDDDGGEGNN
Protocol: Of the 16 hit compounds 13 were tested in an orthogonal SPR assay in which each compound was flowed with SLP76 over 14-3-3γ immobilised on the chip. Runs at different concentrations of compound were compared to the runs in absence of compound. […] The effect of the compounds on 14-3-3γ/SLP76 was measured by calculating the percentage of SLP76 remained on the chip after the dissociation phase and immediately before: RU (%) = RU 5 s before dissociation/RU +240 s after dissociation. Dose–response curves were extrapolated from those sensorgrams plotting the RU (%) mass increase over the increase in compound concentrations.
SPR experiments were performed on a Biacore T200 (Cytiva). The Sensor Chip NTA was validated as previously reported by Soini et al.[63] A DMSO tolerance at 2% and 5% was performed in the same way (Fig. S1 ^†).
For compounds testing, the compounds were preincubated with SLP76, in final DMSO concentration of 5%. The compounds were tested at a single concentration of 100 μM and at multiple concentrations following a 3-fold dilution from a top concentration of 100 μM with SLP76 at the saturation concentration of 250 nM. A second set of experiments were performed at multiple concentrations of compound following a 3-fold dilution from a top concentration of 200 μM with SLP76 around the KD concentration of 40 nM. The SLP76/compound mixtures were flowed over the immobilised 14-3-3γ at 30 μL min^−1 for 180 s before allowing dissociation for 5 minutes. After every cycle, the chip was washed with EDTA and Ni^2+ and 14-3-3γ reinjected for the next cycle. The compound effects were measured by calculating the percentage of SLP76 remained on the chip after the dissociation phase and right before: RU (%) = RU 5 s before dissociation/RU +240 s after dissociation. RU response points relative to +240 s after dissociation were also plotted and an apparent EC50 was estimated. The data were fitted with a “One site – specific” model on GraphPad Prism version 8.1.1 for Windows, GraphPad Software, La Jolla California USA, www.graphpad.com.

[2] = target: T1, 14-3-3γ/SLP76; assay: HTRF dose-response assay on 14-3-3γ/SLP76; details: 14-3-3γ-Tb 1 nM, SLP76-AF647 600 nM, 5% DMSO, EC50 estimated from fit
Protocol: 384-Well logistic plates were prefilled with 2 μL of compounds at 2 mM, 100% DMSO, except for columns 1, 2, 23 and 24. Columns 1, 2 were filled with 2 μL of DMSO while columns 23, 24 were filled with 2 μL of the 14-3-3 inhibitor R18 at 20 μM using a Multidrop Dispenser (ThermoScientific). Next, 40 μL of protein mixture containing Tb-labelled 14-3-3γ at 1 nM and AF647 labelled SLP76 at 600 nM in assay buffer (50 mM Tris pH 7.5, 150 mM NaCl, 5 mM MgCl2, 0.05% v/v Tween-20) were added using a Multidrop Dispenser (ThermoScientific). […] To perform the assay, 30 μL volumes were then transferred using a Biomek FX^P Automated Workstation (Beckman Coulter) into Corning 384-well 3574 assay plates. The plates were incubated at room temperature with gentle shaking for 4 h. Finally, the data were collected on a PHERAstar FSX plate reader (BMG Labtech) with an λex 337 nm, λem 665 nm and 620 nm HTRF filter setting. The data were exported in IDBS ActivityBase (IDBS) where they were normalised setting the R18 negative control as 100% inhibition and the DMSO control as 0%. Negative percentage values were therefore associated with a stabilisation of the 14-3-3γ/SLP76 interaction. The threshold of −20% inhibition (or 20% stabilisation) was chosen to select the hits to follow up. The selected hits were retested on 14-3-3γ/SLP76 and were also tested against an unrelated protein pair (IL-17/receptor) in a similar assay setup. […] All the assays were performed as described above.
(§1) 384 logistic plates were prefilled with 40 μL of compounds at 10 mM, 100% DMSO in column 3. Columns 1, 2 and 4 to 22 were filled with 20 μL of 100% DMSO with a Multidrop Dispenser (ThermoScientific). 2-Fold dilutions of the compounds were carried over from column 3 to 22, with a CyBio FeliX liquid handler (analytikjena). 2 μL of R18 peptide at 20 μM was added to columns 23 and 24 of the Corning 384-well 3574 final assay plates with a Multidrop Dispenser (ThermoScientific). 40 μL of protein mixture, containing Tb labelled 14-3-3γ at 1 nM and AF647 labelled SLP76 at 600 nM in assay buffer (50 mM Tris pH 7.5, 150 mM NaCl, 5 mM MgCl2, 0.05% v/v Tween-20) were added with a Multidrop Dispenser (ThermoScientific) into the Corning 384-well 3574 final assay plates. 2 μL of compounds along with the DMSO control were then transferred with a CyBio FeliX liquid handler (analytikjena) from the 384 logistic plates to the final Corning 384-well 3574 assay plates. […] The dose–response on the first 64 compounds was performed in singlet from a 500 μM top concentration. The repetition on the best 16 compounds was performed in duplicates from a 250 μM top concentration. A dose–response assay on an unrelated 14-3-3ζ/p27 HTRF protein pair was performed as described above. Incubation, data acquisition and normalisation were performed as described above. For EC50 estimation, the data were fitted with a “log(agonist) vs. response (three parameters)” model on GraphPad Prism version 8.1.1 for Windows, GraphPad Software, La Jolla California USA, www.graphpad.com. In the case of duplicates, each data point is the average of a duplicate measurement, standard deviation is reported as error bars.

[3] = target: 14-3-3ζ/p27 (Homo sapiens, UniProt P46527+P63104); assay: HTRF dose-response assay on 14-3-3ζ/p27; details: for Selectivity between 14-3-3γ/SLP76 and 14-3-3ζ/p27 (in words): comparison of HTRF dose-responses
14-3-3ζ/p27, sequence (P63104 whole entry): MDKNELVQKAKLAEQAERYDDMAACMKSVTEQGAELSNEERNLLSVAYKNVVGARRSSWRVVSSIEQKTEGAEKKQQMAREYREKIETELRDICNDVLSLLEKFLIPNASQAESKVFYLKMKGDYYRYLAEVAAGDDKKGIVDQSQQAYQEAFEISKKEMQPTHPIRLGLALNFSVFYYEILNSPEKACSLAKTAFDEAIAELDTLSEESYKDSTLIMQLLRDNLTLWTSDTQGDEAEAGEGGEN
14-3-3ζ/p27, sequence (P46527 whole entry): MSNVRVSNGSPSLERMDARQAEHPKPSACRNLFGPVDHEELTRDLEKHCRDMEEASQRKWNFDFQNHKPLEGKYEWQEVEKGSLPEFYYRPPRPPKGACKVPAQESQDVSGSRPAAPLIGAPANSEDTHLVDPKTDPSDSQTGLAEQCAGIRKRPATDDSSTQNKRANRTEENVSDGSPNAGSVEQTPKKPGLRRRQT
Protocol: as §1

[4] = stabilisation, read-out: HTRF EC50 14-3-3γ/SLP76
[5] = stabilisation, same FRET pair, EC50 estimated from fit, read-out: HTRF EC50 14-3-3ζ/p27

Row | SMILES | Stabilisation in SPR (in words) [1] | SPR RU (%) mass increase 14-3-3γ/SLP76 [1] | EC50 [2, 4] | Stabilisation of 14-3-3ζ/p27 in HTRF (in words) [3] | Selectivity between 14-3-3γ/SLP76 and 14-3-3ζ/p27 (in words) [3] | EC50 [3, 5] [µM] | EC50 ([2]; HTRF EC50 14-3-3γ/SLP76, stabilisation) [µM] | EC50 [3] [µM] | Selectivity for 14-3-3ζ/p27 over 14-3-3γ/SLP76 ([3]; ratio of HTRF EC50s) [fold]
1 | O=C1OC[C@@H]2CCN(Cc3ccccc3)Cc3ccccc3N12 [Compound 1, (6S)-9-benzyl-4-oxa-2,9-diazatricyclo[9.4.0.02,6]pentadeca-1(11),12,14-trien-3-one] | orthogonally confirmed and equipotent by SPR | 66.4% | 19.1 ± 7.7 µM | no observed stabilisation | selective for the 14-3-3γ/SLP76 interaction | > 250 |  |  | 
2 | CC(C)N1CC[C@H]2COC(=O)N2c2cc(F)ccc2C1 [Compound 2, (6S)-14-fluoro-9-propan-2-yl-4-oxa-2,9-diazatricyclo[9.4.0.02,6]pentadeca-1(15),11,13-trien-3-one] | orthogonally confirmed and equipotent by SPR | 67.6% | 18.6 ± 5.5 µM | no observed stabilisation | selective for the 14-3-3γ/SLP76 interaction | > 250 |  |  | 
3 | Fc1ccc(OCc2nn3c(Cn4cnc5ccccc54)nnc3s2)cc1 [Compound 8, 3-(benzimidazol-1-ylmethyl)-6-[(4-fluorophenoxy)methyl]-[1,2,4]triazolo[3,4-b][1,3,4]thiadiazole] | orthogonally confirmed by SPR | 61.2% | 69.1 ± 22.6 µM |  | weak and equipotent stabiliser of both the 14-3-3γ/SLP76 and 14-3-3ζ/p27 systems | 53.9 ± 17.1 |  |  | 
4 | COc1ccc2c(c1)[C@]1(CC[N+](C)(C)CC(=O)OC(C)(C)C)CCCC[C@@H]1C=C2 [Compound 6, 2-[(4aS,10aR)-6-methoxy-2,3,4,10a-tetrahydro-1H-phenanthren-4a-yl]ethyl-dimethyl-[2-[(2-methylpropan-2-yl)oxy]-2-oxoethyl]azanium] | no observable stabilisation effect | Ns ^d |  |  | selective over 14-3-3ζ/p27 |  | 33.5 ± 10.7 | > 250 | 
5 | S=c1[nH]nc(Cn2nnc3ccccc32)o1 [Compound 13, 5-(benzotriazol-1-ylmethyl)-1,3,4-oxadiazole-2-thiol] |  | Ns ^d | 4.9 ± 1.1 µM |  |  | > 250 |  |  | 
6 | O=C(Cn1nc(C(F)(F)F)c2c1CCCC2)Nc1ccc(Cl)c(Cl)c1 [Compound 14, N-(3,4-dichlorophenyl)-2-[3-(trifluoromethyl)-4,5,6,7-tetrahydroindazol-1-yl]acetamide] | not confirmed in the SPR assay | Ns ^d | 21.2 ± 11.3 µM |  |  | 12.6 ± 14.4 |  |  | 
7 | CC1=CCC2COC(C[N+]3(C)CCCCC3)C1C2 (centres unmarked) [Compound 5, 1-methyl-1-[(8-methyl-3-oxabicyclo[3.3.1]non-7-en-2-yl)methyl]piperidin-1-ium] | no observable stabilisation effect | Ns ^d | 71.1 ± 23.9 µM |  | selective over 14-3-3ζ/p27 | > 250 |  |  | 
8 | CC(C)CNC(=O)c1ccc2c(c1)nc1n2CCN(C(C)C)C1=O [Compound 12, N-(2-methylpropyl)-1-oxo-2-propan-2-yl-3,4-dihydropyrazino[1,2-a]benzimidazole-8-carboxamide] | orthogonally confirmed by SPR | 67.4% | 3.2 µM and 3.8 µM |  |  | 0.43 ± 0.37 |  |  | ~9
9 | Cc1ccc(-c2ccc3c(n2)C(=N)NC3CCc2ccc(O)cc2)o1 (centres unmarked) [Compound 11, 4-[2-[7-imino-2-(5-methylfuran-2-yl)-5,6-dihydropyrrolo[3,4-b]pyridin-5-yl]ethyl]phenol] |  |  | 29.7 ± 21.8 µM |  |  | 129 ± 70.5 |  |  | 
10 | COc1ccc(C(=O)N2C[C@@H]3CN(CCO3)C(=O)[C@@H]3C[C@@H](CN3Cc3ccc4c(c3)OCO4)NC(=O)C[C@@H]3O[C@H](C2)[C@@H](O)[C@H]3O)cc1 [Compound 4, (3S,6S,10S,11R,12S,13R,17R)-4-(1,3-benzodioxol-5-ylmethyl)-11,12-dihydroxy-15-(4-methoxybenzoyl)-18,22-dioxa-1,4,7,15-tetrazatetracyclo[15.3.1.13,6.110,13]tricosane-2,8-dione] | orthogonally confirmed by SPR; also recorded: orthogonally confirmed in the SPR assay | 57.1% | 17.4 ± 4.9 µM |  | selective for the 14-3-3γ/SLP76 system | > 250 |  |  | 
11 | CC(=O)CSc1nc2c(c(=O)[nH]c(=O)n2C)n1Cc1cccc(C)c1 [Compound 15, 3-methyl-7-[(3-methylphenyl)methyl]-8-(2-oxopropylsulfanyl)purine-2,6-dione] |  |  | 17.1 ± 5.2 µM |  |  | 11.6 ± 6.1 |  |  | 
12 | O=C(c1ccc(Cl)cc1)n1c(Cn2nnc(-c3cccc4ccccc34)n2)n[nH]c1=S [Compound 16, (4-chlorophenyl)-[3-[(5-naphthalen-1-yltetrazol-2-yl)methyl]-5-sulfanylidene-1H-1,2,4-triazol-4-yl]methanone] |  |  | 1.2 ± 0.7 µM |  |  | 80.6 ± 53.4 |  |  | 
